Laboratory results as given in patent US8557872B2, “Compounds, isomer thereof, or pharmaceutically acceptable salts thereof as vanilloid receptor antagonist; and pharmaceutical compositions containing the same” (Amorepacific Corporation, priority 2008, dated 2013).

Biological target: T1, vanilloid receptor (Rattus norvegicus, UniProt O35433)
T1 construct: DRG nerve cells from the primary culture of 2 days were equilibrated by washing 4 times; endogenous in cells; host or cells: primary culture of dorsal root ganglion neurons from neonatal SD rats
Experiment: 45Ca influx test (calcium uptake) in primary cultured DRG neurons, capsaicin 0.5 μM
Type: cell-based
Conditions: rat DRG neurons, capsaicin 0.5 μM, 45Ca; read-out: Antagonist Calcium Uptake Test (IC50)
Experimental: 1) Separation of Spinal Dorsal Root Ganglia (DRG) in Newborn Rats and Primary Culture Thereof
Neonatal (2-3 day old or younger than 2-3 day old) SD rats were put in ice for 5 minutes to anesthetize and disinfected with 70% ethanol. […] The DRG were incubated sequentially at 37° C. for 30 mins in 200 U/ml collagenase and 2.5 mg/ml trypsin, separately. The ganglia were washed twice with DME/F12 medium supplemented with 10% horse serum, triturated through a fire-polished Pasteur pipette, filtered through Nitex 80 membrane to obtain single cell suspension and the suspension was washed once more. This was subjected to centrifugation, then resuspended in cell culture medium at certain level of cell density. As the cell culture medium, DME/F12 medium supplemented with 10% horse serum was diluted with identical medium conditioned by C6 glioma cells 2 days on a confluent monolayer (1:1), and NGF (Nerve Growth Factor) was added to adjust 200 ng/ml as final concentration. After the cells were grown 2 days in medium where cytosine arabinoside (Ara-C, 100 μM) was added to kill dividing nonneuronal cells, medium was changed to one without Ara-C. The resuspended cells were plated at a density of 1500-2000 neurons/well onto Terasaki plates previously coated with 10 μg/ml poly-D-ornithine.
2) ^45Ca Influx Experiments
DRG nerve cells from the primary culture of 2 days were equilibrated by washing 4 times with HEPES (10 mM, pH 7.4)-buffered Ca^2+, Mg^2+-free HBSS (H-HBSS). The solution in each well was removed from the individual well. Medium containing the test compound plus capsaicin (final concentration 0.5 μM) and ^45Ca (final concentration 10 μCi/ml) in H-HBSS was added to each well and incubated at room temperature for 10 mins. Terasaki plates were washed five times with H-HBSS and dried at room temperature. To each well, 0.3% SDS (10 μl) was added to elute ^45Ca. After the addition of scintillation cocktail of into each well, the amount of ^45Ca influx into neuron was measured by counting radioactivity.

T1 sequence (O35433 whole entry): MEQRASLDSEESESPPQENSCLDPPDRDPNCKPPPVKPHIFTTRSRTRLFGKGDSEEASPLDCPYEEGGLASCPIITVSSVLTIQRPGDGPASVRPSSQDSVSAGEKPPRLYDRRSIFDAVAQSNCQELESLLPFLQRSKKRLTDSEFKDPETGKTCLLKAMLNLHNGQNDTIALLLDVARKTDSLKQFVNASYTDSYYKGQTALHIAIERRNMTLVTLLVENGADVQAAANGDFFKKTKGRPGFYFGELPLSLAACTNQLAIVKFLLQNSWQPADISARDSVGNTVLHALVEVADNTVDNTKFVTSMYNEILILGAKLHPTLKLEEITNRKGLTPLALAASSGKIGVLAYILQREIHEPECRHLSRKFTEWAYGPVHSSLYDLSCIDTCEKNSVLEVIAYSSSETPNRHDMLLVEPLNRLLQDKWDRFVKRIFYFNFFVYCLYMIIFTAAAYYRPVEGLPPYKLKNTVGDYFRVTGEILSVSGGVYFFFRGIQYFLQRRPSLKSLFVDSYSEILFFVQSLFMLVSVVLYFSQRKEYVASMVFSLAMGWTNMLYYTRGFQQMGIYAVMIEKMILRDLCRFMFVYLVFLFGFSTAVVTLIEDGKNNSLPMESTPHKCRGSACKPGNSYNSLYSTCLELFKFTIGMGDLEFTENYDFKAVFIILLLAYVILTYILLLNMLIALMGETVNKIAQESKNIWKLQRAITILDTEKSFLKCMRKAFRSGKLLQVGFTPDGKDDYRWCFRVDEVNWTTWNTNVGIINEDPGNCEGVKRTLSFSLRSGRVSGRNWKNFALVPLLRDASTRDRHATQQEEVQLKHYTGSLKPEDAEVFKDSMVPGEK

SMILES | IC50
CCOc1cc(C(F)(F)F)ccc1/C=C/C(=O)NCc1cc(F)c(NS(C)(=O)=O)c(C(F)(F)F)c1 [Example 15, 3-(2-Ethoxy-4-trifluoromethyl-phenyl)-N-(3-fluoro-4-methanesulfonylamino-5-trifluoromethyl-benzyl)-acrylamide] | 2400 nM
CCC(C)Oc1cc(F)ccc1/C=C/C(=O)N[C@H](C)c1cc(F)c(NS(C)(=O)=O)c(F)c1 (stereo partly drawn) [Example 40, (R)-3-(2-sec-Butoxy-4-fluoro-phenyl)-N-[1-(3,5-difluoro-4-methanesulfonylamino-phenyl)-ethyl]-acrylamide] | 100 nM
CCCCOc1cc(F)ccc1/C=C/C(=O)NCc1cc(F)c(NS(C)(=O)=O)c(F)c1 [Example 34, 3-(2-Butoxy-4-fluoro-phenyl)-N-(3,5-difluoro-4-methanesulfonylamino-benzyl)-acrylamide] | 980 nM
CCCCNc1cc(F)ccc1/C=C/C(=O)NCc1cc(F)c(NS(C)(=O)=O)c(F)c1 [Example 46, 3-(2-Butylamino-4-fluoro-phenyl)-N-(3,5-difluoro-4-methanesulfonylamino-benzyl)-acrylamide] | 180 nM
CCC(C)Oc1cc(C(F)(F)F)ccc1/C=C/C(=O)N[C@H](C)c1cc(F)c(NS(C)(=O)=O)c(F)c1 (stereo partly drawn) [Example 39, (R)-3-(2-sec-Butoxy-4-trifluoromethyl-phenyl)-N-[1-(3,5-difluoro-4-methanesulfonylamino-phenyl)-ethyl]-acrylamide] | 22 nM
CCCNc1cc(C(F)(F)F)ccc1/C=C/C(=O)NCc1cc(C)c(NS(C)(=O)=O)c(F)c1 [Example 11, N-(3-Fluoro-4-methanesulfonylamino-5-methyl-benzyl)-3-(2-propylamino-4-trifluoromethyl-phenyl)-acrylamide] | 62 nM
CCOc1cc(C(F)(F)F)ccc1/C=C/C(=O)N[C@H](C)c1ccc(NS(C)(=O)=O)c(F)c1 [Example 9, (R)—N-[1-(3-Fluoro-4-methanesulfonylamino-phenyl)-ethyl]-3-(2-ethoxy-4-trifluoromethyl-phenyl)-acrylamide] | 340 nM
CCc1cc(C(F)(F)F)cc(CC)c1/C=C/C(=O)N[C@H](C)c1cc(F)c(NS(C)(=O)=O)c(F)c1 [Example 17] | 140 nM
CCNc1cc(C(F)(F)F)ccc1/C=C/C(=O)N[C@H](C)c1cc(F)c(NS(C)(=O)=O)c(F)c1 [Example 10, (R)—N-[1-(3,5-Difluoro-4-methanesulfonylamino-phenyl)-ethyl]-3-(2-ethylamino-4-trifluoromethyl-phenyl)-acrylamide] | 50 nM
C[C@@H](NC(=O)/C=C/c1ccc(C(F)(F)F)cc1N1CCCCC1)c1cc(F)c(NS(C)(=O)=O)c(F)c1 [Example 52] | 340 nM
CCCCOc1cc(C(F)(F)F)ccc1/C=C/C(=O)N[C@H](C)c1cc(F)c(NS(C)(=O)=O)c(F)c1 [Example 31, (R)-3-(2-Butoxy-4-trifluoromethyl-phenyl)-N-[1-(3,5-difluoro-4-methanesulfonylamino-phenyl)-ethyl]-acrylamide] | 110 nM
CCCc1cc(F)ccc1/C=C/C(=O)N[C@H](C)c1cc(F)c(NS(C)(=O)=O)c(F)c1 [Example 53, (R)—N-[1-(3,5-Difluoro-4-methanesulfonylamino-phenyl)-ethyl]-3-(4-fluoro-2-propyl-phenyl)-acrylamide] | 170 nM
CCCCOc1cc(C(F)(F)F)ccc1/C=C/C(=O)N[C@H](CC)c1cc(F)c(NS(C)(=O)=O)c(F)c1 (stereo in doubt) [Example 38, 3-(2-Butoxy-4-trifluoromethyl-phenyl)-N-[1-(3,5-difluoro-4-methanesulfonylamino-phenyl)-propyl]-acrylamide] | 1100 nM
CC(C)Cc1cc(C(F)(F)F)ccc1/C=C/C(=O)N[C@H](C)c1cc(F)c(NS(C)(=O)=O)c(F)c1 [Example 47, (R)—N-[1-(3,5-Difluoro-4-methanesulfonylamino-phenyl)-ethyl]-3-(2-isobutyl-4-trifluoromethyl-phenyl)-acrylamide] | 94 nM
CCNc1cc(C(F)(F)F)ccc1/C=C/C(=O)NCc1cc(C)c(NS(C)(=O)=O)c(F)c1 [Example 19, 3-(2-Ethylamino-4-trifluoromethyl-phenyl)-N-(3-fluoro-4-methanesulfonylamino-5-methyl-benzyl)-acrylamide] | 160 nM

Results, then the compound that gave them:

IC50 | SMILES
190 nM | CCCNc1cc(C(F)(F)F)ccc1CCC(=O)N[C@H](C)c1cc(F)c(NS(C)(=O)=O)c(F)c1 [Example 55, (R)—N-[1-(3,5-difluoro-4-methanesulfonylamino-phenyl)-ethyl]-3-(2-propylamino-4-trifluoromethyl-phenyl)-propionamide]
220 nM | CCCCc1cc(C(F)(F)F)cc(CCCC)c1/C=C/C(=O)N[C@H](C)c1cc(F)c(NS(C)(=O)=O)c(F)c1 [Example 16, (R)-3-(2,6-Dibutyl-4-trifluoromethyl-phenyl)-N-[1-(3,5-difluoro-4-methanesulfonylamino-phenyl)-ethyl]-acrylamide]
530 nM | CCCc1cc(C(F)(F)F)ccc1/C=C(\C)C(=O)N[C@H](C)c1cc(F)c(NS(C)(=O)=O)c(F)c1 [Example 48, (R)—N-[1-(3,5-Difluoro-4-methanesulfonylamino-phenyl)-ethyl]-2-methyl-3-(2-propyl-4-trifluoromethyl-phenyl)-acrylamide]
270 nM | CCCc1cc(C(F)(F)F)ccc1/C=C/C(=O)NCc1cc(C)c(NS(C)(=O)=O)c(F)c1 [Example 23, N-(3-Fluoro-4-methanesulfonylamino-5-methyl-benzyl)-3-(2-propyl-4-trifluoromethyl-phenyl)-acrylamide]
83 nM | CCNc1cc(C(F)(F)F)ccc1/C=C/C(=O)NCc1cc(F)c(NS(C)(=O)=O)c(F)c1 [Example 18, N-(3,5-Difluoro-4-methanesulfonylamino-benzyl)-3-(2-ethylamino-4-trifluoromethyl-phenyl)-acrylamide]
170 nM | CCCOc1cc(F)ccc1/C=C/C(=O)N[C@H](C)c1cc(F)c(NS(C)(=O)=O)c(F)c1 [Example 27, (R)—N-[1-(3,5-Difluoro-4-methanesulfonylamino-phenyl)-ethyl]-3-(4-fluoro-2-propoxy-phenyl)-acrylamide]
240 nM | C#Cc1cc(CNC(=O)/C=C/c2ccc(C(F)(F)F)cc2OCCC)cc(F)c1NS(C)(=O)=O [Example 14, N-(3-Ethynyl-5-fluoro-4-methanesulfonylamino-benzyl)-3-(2-propoxy-4-trifluoromethyl-phenyl)-acrylamide]
110 nM | CCNc1cc(F)ccc1/C=C/C(=O)N[C@H](C)c1cc(F)c(NS(C)(=O)=O)c(F)c1 [Example 42, (R)—N-[1-(3,5-Difluoro-4-methanesulfonylamino-phenyl)-ethyl]-3-(2-ethylamino-4-fluoro-phenyl)-acrylamide]
46 nM | CCCCc1cc(C(F)(F)F)ccc1/C=C/C(=O)N[C@H](C)c1ccc(NS(C)(=O)=O)c(F)c1 [Example 36, (R)-3-(2-Butyl-4-trifluoromethyl-phenyl)-N-[1-(3-fluoro-4-methanesulfonylamino-phenyl)-ethyl]-acrylamide]
350 nM | CCCNc1cc(C(F)(F)F)ccc1CCC(=O)NCc1cc(F)c(NS(C)(=O)=O)c(F)c1 [Example 56, N-(3,5-difluoro-4-methanesulfonylamino-benzyl)-3-(2-propylamino-4-trifluoromethyl-phenyl)-propionamide]
380 nM | CCCOc1cc(C(F)(F)F)ccc1/C=C/C(=O)NCc1cc(F)c(NS(C)(=O)=O)c(F)c1 [Example 4, N-(3,5-Difluoro-4-methanesulfonylamino-benzyl)-3-(2-propoxy-4-trifluoromethyl-phenyl)-acrylamide]
1700 nM | CCOc1cc(C(F)(F)F)ccc1/C=C/C(=O)N[C@H](CC)c1cc(F)c(NS(C)(=O)=O)c(F)c1 (stereo in doubt) [Example 37, N-[1-(3,5-Difluoro-4-methanesulfonylamino-phenyl)-propyl]-3-(2-ethoxy-4-trifluoromethyl-phenyl)-acrylamide]
110 nM | CCOc1cc(C(F)(F)F)ccc1/C=C/C(=O)N[C@H](C)c1cc(F)c(NS(C)(=O)=O)c(F)c1 [Example 7, (R)—N-[1-(3,5-Difluoro-4-methanesulfonylamino-phenyl)-ethyl]-3-(2-ethoxy-4-trifluoromethyl-phenyl)-acrylamide]
150 nM | CC(C)Oc1cc(C(F)(F)F)ccc1/C=C/C(=O)NCc1cc(F)c(NS(C)(=O)=O)c(F)c1 [Example 20, N-(3,5-Difluoro-4-methanesulfonylamino-benzyl)-3-(2-isopropoxy-4-trifluoromethyl-phenyl)-acrylamide]
410 nM | CCCNc1cc(F)ccc1/C=C/C(=O)NCc1cc(F)c(NS(C)(=O)=O)c(F)c1 [Example 30]
